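All cell lines were grown in 96-well plates and treated with compound for 48 hours. GI50: concentration for 50% inhibition of growth. TGI is the concentration that stops growth completely.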

Some test systems named below: HCT-116 colon; HOP-62 NSCLC; HT29 colon; K-562 leukemia; NCI-H226 lung; NCI-H23 lung; NCI/ADR-RES ovarian; OVCAR-3 ovarian; SK-OV-3 ovarian; U251 CNS.
Holding throughout (assay): NCI tumour cell line growth inhibition, 48 h

For `Cc1ccc(NC(=O)Nc2c(Cl)cccc2Cl)cn1`, the GI50 with HCT-116 colon was 11.1 µM; in the test on HOP-62 NSCLC it was 8.33 µM; in the test on HT29 colon, 3.93 µM; with K-562 leukemia, 4.03 µM; with NCI-H226 lung, greater than 100 µM; with NCI-H23 lung, 26.1 µM. Further, the GI50 in the test on NCI/ADR-RES ovarian was 4.46 µM; in the test on OVCAR-3 ovarian, 4.5 µM; in the test with SK-OV-3 ovarian, 5.97 µM; in the test on U251 CNS, 5.07 µM. In addition, the TGI is greater than 100 µM with HCT-116 colon; greater than 100 µM in the test with HOP-62 NSCLC; 15.6 µM in the test with HT29 colon; greater than 100 µM in the test with K-562 leukemia; greater than 100 µM in the test with NCI-H226 lung; greater than 100 µM with NCI-H23 lung. Further, the TGI in the test on NCI/ADR-RES ovarian was 70.3 µM; in the test with OVCAR-3 ovarian it was 22.7 µM; in the test with SK-OV-3 ovarian it was greater than 100 µM; with U251 CNS, greater than 100 µM.

For the compound `O=c1ccc(=O)n(-c2ccccc2)[nH]1`, the TGI with HCT-116 colon, in the test with HOP-62 NSCLC, with HT29 colon, in the test with K-562 leukemia, in the test with NCI-H226 lung and in the test on NCI-H23 lung was greater than 100 µM throughout. Besides, the TGI in the test on NCI/ADR-RES ovarian, with OVCAR-3 ovarian, in the test on SK-OV-3 ovarian and in the test on U251 CNS was greater than 100 µM throughout.

Turning to `C=C1C(=O)O[C@H]2[C@H]1CC/C(Cn1cc(-c3cccc(Cl)c3)nn1)=C\CC[C@@]1(C)O[C@@H]21`, the GI50 in the test with HCT-116 colon is 0.163 µM; in the test on HOP-62 NSCLC, 1.94 µM; with HT29 colon, 0.51 µM; in the test on K-562 leukemia, 0.405 µM; in the test with NCI-H226 lung, 1.71 µM; with NCI-H23 lung, 1.58 µM. For the same compound, the GI50 with NCI/ADR-RES ovarian was 2.39 µM; with OVCAR-3 ovarian, 0.475 µM; in the test with SK-OV-3 ovarian it was 3.67 µM; in the test on U251 CNS, 1.61 µM. Further, the TGI with HCT-116 colon stood at 0.377 µM; in the test on HOP-62 NSCLC, 3.68 µM; in the test with HT29 colon it was 1.73 µM; in the test with K-562 leukemia it was 2.44 µM; with NCI-H226 lung, 3.75 µM; in the test with NCI-H23 lung, 3.27 µM. The TGI amounted to 8.39 µM in the test with NCI/ADR-RES ovarian, 1.63 µM in the test on OVCAR-3 ovarian, 11.2 µM with SK-OV-3 ovarian and 3.01 µM in the test on U251 CNS.

As for `CN(C)Cc1ccc(C(C)(C)C)cc1-c1cc(C(C)(C)C)ccc1CN(C)C`, the TGI in the test on HCT-116 colon, in the test with HOP-62 NSCLC, in the test on HT29 colon, with K-562 leukemia, with NCI-H226 lung and in the test with NCI-H23 lung was greater than 100 µM each time. The TGI in the test on NCI/ADR-RES ovarian, in the test with OVCAR-3 ovarian, with SK-OV-3 ovarian and in the test with U251 CNS was greater than 100 µM throughout.

Take `CCOc1ccc2c(c1)CN(Cc1ccc(Cl)cc1)CO2`: the GI50 is 14.8 µM with HCT-116 colon; 26.2 µM in the test with HOP-62 NSCLC; 20.3 µM in the test on HT29 colon; 17 µM in the test on K-562 leukemia; 30.3 µM in the test with NCI-H226 lung; 25.8 µM in the test on NCI-H23 lung. Further, the GI50 with NCI/ADR-RES ovarian was 19.4 µM; in the test with OVCAR-3 ovarian, 21.6 µM; in the test with SK-OV-3 ovarian, 29.8 µM; in the test on U251 CNS, 16.1 µM. In addition, the TGI in the test on HCT-116 colon was 29 µM; in the test with HOP-62 NSCLC it was greater than 100 µM; in the test with HT29 colon it was 40.4 µM; in the test on K-562 leukemia, 57 µM; in the test with NCI-H226 lung it was greater than 100 µM; in the test with NCI-H23 lung, 94.5 µM. In addition, the TGI in the test with NCI/ADR-RES ovarian is 48.9 µM; in the test on OVCAR-3 ovarian, 51.1 µM; in the test on SK-OV-3 ovarian it was greater than 100 µM; in the test on U251 CNS, 33.2 µM.

As to `COc1ccc(Cl)cc1Nc1nc(C(F)(F)F)ccc1C(=O)N/N=C/c1cccnc1`, the GI50 is 3.43 µM in the test on HCT-116 colon; 5.22 µM in the test with HOP-62 NSCLC; 6.01 µM in the test on HT29 colon; 3.16 µM in the test with K-562 leukemia; 3.49 µM in the test with NCI-H226 lung; 5.34 µM in the test with NCI-H23 lung. Also, the GI50 was 3.8 µM in the test with NCI/ADR-RES ovarian, 0.665 µM in the test on OVCAR-3 ovarian, 2.47 µM in the test on SK-OV-3 ovarian and 2.4 µM with U251 CNS. In addition, the TGI in the test on HCT-116 colon is greater than 100 µM; in the test with HOP-62 NSCLC, 75 µM; with HT29 colon it was greater than 100 µM; in the test with K-562 leukemia it was greater than 100 µM; in the test with NCI-H226 lung, greater than 100 µM; with NCI-H23 lung, greater than 100 µM. The TGI in the test on NCI/ADR-RES ovarian was greater than 100 µM; with OVCAR-3 ovarian, 6.82 µM; in the test on SK-OV-3 ovarian, greater than 100 µM; in the test with U251 CNS, greater than 100 µM.

Consider `O=C(O)c1c(Cl)c(Cl)c(Cl)c(Cl)c1C(=O)Nc1ccc2cn[nH]c2c1`, for which the TGI with HCT-116 colon, in the test with HOP-62 NSCLC, in the test on HT29 colon, with K-562 leukemia, in the test with NCI-H226 lung and with NCI-H23 lung was greater than 100 µM each time. For the same compound, the TGI in the test on NCI/ADR-RES ovarian, with OVCAR-3 ovarian, in the test on SK-OV-3 ovarian and in the test on U251 CNS was greater than 100 µM throughout.

Regarding `C/C(=N\n1c(O)c(C#N)cc(C#N)c1=O)c1ccncc1`, the GI50 in the test with HCT-116 colon, with HOP-62 NSCLC, in the test with HT29 colon, in the test on K-562 leukemia, in the test with NCI-H226 lung and in the test with NCI-H23 lung was greater than 100 µM in each case. Also, the GI50 in the test on NCI/ADR-RES ovarian, with OVCAR-3 ovarian, in the test on SK-OV-3 ovarian and in the test with U251 CNS was greater than 100 µM in each case. The TGI in the test with HCT-116 colon, with HOP-62 NSCLC, with HT29 colon, in the test on K-562 leukemia, in the test on NCI-H226 lung and with NCI-H23 lung was greater than 100 µM each time. Further, the TGI in the test on NCI/ADR-RES ovarian, in the test with OVCAR-3 ovarian, with SK-OV-3 ovarian and in the test on U251 CNS was greater than 100 µM each time.
